Consider 13 molecules from PubChem BioAssay (NCI).

Common to all, as to test: growth of human tumour cells (NCI), 48 h
Assay [1] deals with CAKI-1 renal.
Assay [2] deals with CCRF-CEM leukemia.
Assay [3] deals with MALME-3M melanoma.
Assay [4] relates to MDA-MB-231 breast.
In assay [5] the test system is MOLT-4 leukemia.
For assay [6], the system named is OVCAR-3 ovarian.
Assay [7] concerns RXF 393 renal.
Assay [8] relates to SK-MEL-28 melanoma.
The test system of assay [9] is SK-OV-3 ovarian.
The subject of assay [10] is T-47D breast.
Assay [11] relates to HT29 colon.

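Compound exposure: 48 hours, 5 concentrations, 96-well plates. GI50: concentration for 50% inhibition of growth. TGI: total growth inhibition.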 A value given as a limit tells only on which side of the number the result lay.

For `CC(=O)OC[C@@H](OC(C)=O)[C@H](OC(C)=O)[C@@H]1OC(C)(C)O[C@@H]1C1SCCCS1`, the TGI in assay [1], in [2], in assay [3], in assay [4], in assay [5] and in [6] was greater than 100 µM each time. Further, the TGI in assay [7], in assay [8], in assay [9] and in assay [10] was greater than 100 µM in each case.

For `O=C(CNc1ccccc1[N+](=O)[O-])Nn1c(-c2ccccc2)nc2ccccc2c1=O`, the TGI was 43.6 µM in assay [2]; 33.7 µM in assay [11]; 40.6 µM in assay [3]; 29.1 µM in [4]; 49.8 µM in assay [5]; greater than 100 µM in [6]. Besides, the TGI is 38.9 µM in assay [7], 59.2 µM in assay [8], greater than 100 µM in assay [9] and 39.2 µM in [10].

Regarding `O=[N+]([O-])c1cc2c(cc1/C=N/n1c(CO)nc3ccccc31)OCO2`, the TGI in assay [1], in assay [2], in assay [11], in [3], in assay [4] and in [5] was greater than 100 µM in each case. Moreover, the TGI in assay [6], in assay [7], in assay [8], in assay [9] and in [10] was greater than 100 µM throughout.

Take `NC1=CN2c3ccccc3N(CC(=O)O)C2C=C1` (centres undefined): the TGI in [1], in assay [2], in assay [11], in [3], in [4] and in [5] was greater than 100 µM each time. Moreover, the TGI in assay [6], in assay [7], in assay [8], in [9] and in assay [10] was greater than 100 µM each time.

In the case of `O=S(=O)(/N=C(\NO)Nc1ccc(Cl)cc1)c1cccc2nsnc12`, the TGI is 70 µM in [1]; 71.9 µM in assay [2]; greater than 100 µM in assay [11]; 46.3 µM in [3]; greater than 100 µM in [4]; greater than 100 µM in assay [5]. Besides, the TGI in assay [6] was 70 µM; in assay [7] it was greater than 100 µM; in [8] it was 46.6 µM; in assay [9] it was greater than 100 µM; in assay [10], greater than 100 µM.

`COc1ccc(N2C(=O)C3c4[nH]c5ccc(F)cc5c4C4CCC(c5ccccc5)CC4C3C2=O)cc1` (centres undefined): the TGI is 48.1 µM in assay [1]; 16.5 µM in [2]; greater than 100 µM in assay [11]; 33.3 µM in [3]; 44 µM in assay [4]; greater than 100 µM in assay [6]. The TGI is 32.7 µM in [8], 49.5 µM in [9] and greater than 100 µM in assay [10].

In the case of `COc1cc2cc(C(=O)N3CC(CCl)c4c3cc(N)c3ccccc43)[nH]c2c(OC)c1OC` (centres undefined), the TGI was less than 0.01 µM in [1]; less than 0.01 µM in [2]; 1.41 µM in assay [11]; less than 0.01 µM in assay [3]; 0.519 µM in [4]; less than 0.01 µM in [5]. Further, the TGI in assay [6] is less than 0.01 µM; in assay [7] it was less than 0.01 µM; in assay [9] it was 0.248 µM; in assay [10] it was greater than 100 µM.

Turning to `CCOC(=O)/C(C#N)=C/c1ccnc2ccccc12`, the TGI in assay [1], in assay [11], in assay [3], in [4], in assay [5] and in [6] was greater than 100 µM in each case. Moreover, the TGI in assay [7], in [8], in [9] and in assay [10] was greater than 100 µM each time.

Take `FC(F)(F)c1cccc(-c2nc3ccccc3c3c2[C@@]2(N4CCCC4)CCCC[C@@H]32)c1`: the TGI in [1] was greater than 100 µM; in assay [2], 87.9 µM; in [11], greater than 100 µM; in [3], greater than 100 µM; in assay [4] it was 49.3 µM; in assay [5], greater than 100 µM. For the same molecule, the TGI in [6], in assay [7], in assay [9] and in assay [10] was greater than 100 µM each time.

Consider `N#Cc1c(-c2ccccc2)c(N=Nc2ccc(Cl)cc2)c(=O)n2c1[nH]c1ccccc12`, for which the TGI in assay [1], in assay [2], in [3], in assay [4], in assay [6] and in [7] was greater than 100 µM in each case. For the same molecule, the TGI in assay [8], in [9] and in assay [10] was greater than 100 µM each time.

Regarding `CCCCCCCCCCC1OC([C@@H](O)CC[C@H](O)C2CC[C@@H](CCCCCCCC(O)CC3=CC(C)OC3=O)O2)CCC1O` (some centres undefined), the TGI in assay [1] is greater than 25 µM; in [2], greater than 25 µM; in [3], greater than 25 µM; in assay [4], greater than 25 µM; in [5], greater than 13.9 µM; in [6], greater than 23.5 µM. In addition, the TGI was greater than 18.6 µM in assay [7], greater than 25 µM in [8], greater than 25 µM in [9] and greater than 25 µM in assay [10]. Also, the GI50 in assay [4] is 5.88 µM; in assay [5], 2.76 µM; in assay [6] it was 1.69 µM; in assay [8], 5.34 µM.

Turning to `CCOC(=O)CNc1nc(=O)c2c(=O)oc(Cl)cc2o1`, the TGI in [1] came to 29.1 µM; in assay [2], 68.3 µM; in [11], 22.6 µM; in assay [3], 23.5 µM; in [4], 59.1 µM; in assay [5], 29.8 µM. Also, the TGI is 25.5 µM in assay [6], 63.7 µM in assay [8], greater than 100 µM in assay [9] and 61.7 µM in assay [10].

As for `FC1C2=C(SC1(F)F)C1CCC2C1` (centres undefined), the TGI in assay [1], in assay [11], in assay [3], in assay [4], in assay [5] and in assay [6] was greater than 100 µM throughout. Also, the TGI in assay [7], in assay [9] and in [10] was greater than 100 µM each time.
